Assay results from the supplement of paper PMC4862054.

Tests used:
Details in all cases: incubation time: 72 h
[1] = tested on: MFM-223; assay: normalised response (% of control), CellTiter-Glo; higher = more viable cells (100 = DMSO, 0 = benzethonium chloride kill control)
Outline: (§1)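 Breast cancer cell lines in 20 µl suspension were added to 384-well plates containing compound at 5 concentrations, spaced in 10-fold steps across a 10,000-fold range chosen for each compound, and incubated for 72 h. CellTox Green fluorescence was read at 485/520 nm, followed by CellTiter-Glo luminescence after 10 min at room temperature. Signals on each plate were normalised so that 0.1 % DMSO equals 100 and a positive kill control equals 0. Every value in the table is the normalised signal at one concentration of the series.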

[2] = tested on: MDA-MB-453; assay: as above
Outline: as §1

[3] = tested on: HDQ-P1; assay: as above
Outline: as §1

[4] = tested on: HCC1599; assay: as above
Outline: as §1

[5] = tested on: CAL-85-1; assay: as above
Outline: as §1

[6] = tested on: DU-4475; assay: as above
Outline: as §1

[7] = tested on: BT-474; assay: as above
Outline: as §1

[8] = tested on: CAL-148; assay: as above
Outline: as §1

[9] = tested on: HCC1143; assay: as above
Outline: as §1

[10] = tested on: MCF-10A; assay: as above
Outline: as §1

[11] = tested on: SK-BR-3; assay: as above
Outline: as §1

[12] = tested on: MDA-MB-231; assay: as above
Outline: as §1

[13] = tested on: CAL-120; assay: as above
Outline: as §1

[14] = tested on: MDA-MB-468; assay: as above
Outline: as §1

[15] = tested on: HCC1937; assay: as above
Outline: as §1

[16] = tested on: CAL-51; assay: as above
Outline: as §1

[17] = tested on: Hs578T; assay: as above
Outline: as §1

[18] = tested on: MDA-MB-436; assay: as above
Outline: as §1

[19] = tested on: BT-549; assay: as above
Outline: as §1

[20] = tested on: MFM-223; assay: normalised response (% of control), CellTox Green; higher = less cell death (100 = DMSO, 0 = benzethonium chloride kill control)
Outline: as §1

[21] = tested on: MDA-MB-453; assay: as above
Outline: as §1

[22] = tested on: HDQ-P1; assay: as above
Outline: as §1

[23] = tested on: HCC1599; assay: as above
Outline: as §1

[24] = tested on: CAL-85-1; assay: as above
Outline: as §1

[25] = tested on: DU-4475; assay: as above
Outline: as §1

[26] = tested on: BT-474; assay: as above
Outline: as §1

[27] = tested on: CAL-148; assay: as above
Outline: as §1

[28] = tested on: HCC1143; assay: as above
Outline: as §1

[29] = tested on: MCF-10A; assay: as above
Outline: as §1

[30] = tested on: MDA-MB-231; assay: as above
Outline: as §1

[31] = tested on: CAL-120; assay: as above
Outline: as §1

[32] = tested on: MDA-MB-468; assay: as above
Outline: as §1

[33] = tested on: HCC1937; assay: as above
Outline: as §1

[34] = tested on: CAL-51; assay: as above
Outline: as §1

[35] = tested on: Hs578T; assay: as above
Outline: as §1

[36] = tested on: MDA-MB-436; assay: as above
Outline: as §1

[37] = tested on: BT-549; assay: as above
Outline: as §1

Row | Compound | normalised response [1] [%] | normalised response [2] [%] | normalised response [3] [%] | normalised response [4] [%] | normalised response [5] [%] | normalised response [6] [%] | normalised response [7] [%] | normalised response [8] [%] | normalised response [9] [%] | normalised response [10] [%] | normalised response [11] [%] | normalised response [12] [%] | normalised response [13] [%] | normalised response [14] [%] | normalised response [15] [%] | normalised response [16] [%] | normalised response [17] [%] | normalised response [18] [%] | normalised response [19] [%] | normalised response [20] [%] | normalised response [21] [%] | normalised response [22] [%] | normalised response [23] [%] | normalised response [24] [%] | normalised response [25] [%] | normalised response [26] [%] | normalised response [27] [%] | normalised response [28] [%] | normalised response [29] [%] | normalised response [30] [%] | normalised response [31] [%] | normalised response [32] [%] | normalised response [33] [%] | normalised response [34] [%] | normalised response [35] [%] | normalised response [36] [%] | normalised response [37] [%]
1 | COc1cc2c(Oc3ccc4[nH]c(C)cc4c3F)ncnc2cc1OCCCN1CCCC1 [Cediranib] (10 nM) | 107 | 107 | 100 | 88.5 | 107 | 104 | 103 | 108 | 102 | 97.9 | 104 | 105 | 103 | 104 | 99.5 | 92.7 | 110 | 101 | 113 | 106 | 107 | 108 | 113 | 90.9 | 97.7 | 96.3 | 105 | 101 | 88.3 | 106 | 95.1 | 138 | 119 | 109 | 111 | 103 | 104
2 | Cc1ccc(-c2cc(C(F)(F)F)nn2-c2ccc(S(N)(=O)=O)cc2)cc1 [Celecoxib] (100 nM) | 104 | 110 | 94.7 | 98.1 | 97.6 | 103 | 99 | 95.4 | 104 | 97.8 | 102 | 101 | 103 | 98.9 | 94 | 110 | 111 | 97.4 | 100 | 98.7 | 104 | 101 | 95.6 | 101 | 101 | 99.5 | 95.4 | 98.9 | 102 | 93.2 | 102 | 89.2 | 106 | 111 | 96.8 | 71.4 | 90.5
3 | C=CC(=O)N1CCC[C@@H](n2nc(-c3ccc(Oc4ccccc4)cc3)c3c(N)ncnc32)C1 [Ibrutinib] (10 nM) | 110 | 87.3 | 89 | 105 | 99.5 | 100 | 104 | 109 | 105 | 102 | 67.4 | 108 | 106 | 98.4 | 94.2 | 113 | 106 | 103 | 99.8 | 100 | 77.9 | 107 | 107 | 95.8 | 101 | 96.3 | 84.5 | 114 | 63.2 | 110 | 98.7 | 92.8 | 118 | 112 | 93.2 | 100 | 87
